From patent US7300763B2, “Method of testing myelotoxicity with the use of flow cytometer” (Teijin Limited, priority 2000, dated 2007)

Tests used:
rat bone marrow cells [1] = assay: Myelotoxicity by flow cytometer analysis of cell surface antigen-expressing bone marrow cells after administration of 5-FU; type: in vivo; conditions: 50 mg/kg/day intravenously; for Number of CD45 Peak 1-expressing cells / Number of CD45 Peak 2-expressing cells / Number of CD45R-expressing cells / Number of CD71-expressing cells / Number of CD90-expressing cells: n = 3
Experimental: (1) Six-week-old male CD (SD) IGS rats purchased from Charles River Japan were used at the age of 8 weeks. During the housing period, the rats were fed with a feed for animals (Oriental Yeast Co., Ltd., CRF-1) and drinking water (well water containing 0.4% of a hypochlorite added) ad libitum. The animals were housed in metal cages (one animal per cage) and kept under conditions of a temperature of 23±1° C. and a humidity of 55±15%.
(2) The bone marrow was collected from left and right femurs. The femurs were taken out under anaethesia with pentobarbital, and both ends of the femurs were cut. The bone marrow was then flushed out with 1 mL of fetal bovine serum using a syringe with a 25G injection needle. Bone pieces or the like were removed by using a Pasteur pipette, and cells were then collected by centrifugation (3,000 rpm for 5 minutes).
(3) To 20 μL of the cells collected in (2), was added 5 mL of a phosphate-buffer-solution (PBS). Thereby, a cell suspension was obtained.
(4) To 200 μL of the cell suspension in (3), was added 2 μg of a specific antibody to the cell surface antigen. Incubation was carried out at room temperature for 45 minutes. Mouse IgG2a anti-rat CD2, mouse IgG1 anti-rat CD8, mouse IgA anti-rat CD11b, mouse IgG1 anti-rat CD45, mouse IgG2b anti-rat CD45R, mouse IgG2a anti-rat CD71 and mouse IgG2a anti-rat CD90 were used as the antibody. Mouse IgG1, mouse IgG2a, mouse IgG2b and mouse IgA were used as the isotype control antibody. All the antibodies labeled with fluorescein (FITC) (Pharmingen.) were used as the antibody.
(5) After incubation, 1 mL of Optilyse C (Beckman Coulter.) was added, and treatment was carried out for 10 minutes to hemolyze erythrocytes. After the hemolytic treatment, 1 mL of PBS was added, and incubation was carried out at room temperature for 10 minutes.
(6) Procedures of adding 1 mL of PBS to a cell precipitation obtained by centrifugation (3,000 rpm for 5 minutes) after incubation and thereby washing the cells were repeated twice.
(7) After washing, 2 mL of PBS was added to the cell precipitation to provide a cell suspension. Analysis was carried out with the use of a flow cytometer (EPICS XL-MCL, Beckman Coulter.) The analysis was conducted by following procedures described below. […] The fluorescence detector sensitivity of the flow cytometer was adjusted with the cells treated with the isotype antibody.
(§1) (2) 5-Fluorouracil (hereinafter abbreviated to 5-FU) as a chemotherapeutic agent in a dose of 50 mg/kg/day ([…], 10 mL/kg) was intravenously administered to the rats, and a physiological saline solution was used as the control substance.
(§2) The days of the experiment were indicated by the day of starting the administration as day 0. Groups for collecting the bone marrow on the day 0 and day 5 of the experiment were respectively set as groups administered with the control substance. Groups for collecting the bone marrow from day 1 to day 5 of the experiment were respectively set as groups administered with the 5-FU. The number of animals in each group was 3.
(4) Bone marrow collection, antibody treatment and analysis with the flow cytometer were carried out according to Example 1. A flow count (Beckman Coulter.) was added to the cell suspension during the flow cytometer analysis, and a calibration region was set on the cytogram of EPIS XL-MCL to make measurement. The absolute number of the respective cell surface antigen-expressing cells was calculated. Mouse IgGI anti-rat CD45, mouse IgG2b anti-rat CD45R, mouse IgG2a anti-rat CD71 and mouse IgG2a anti-rat CD90 were used as the antibody, and mouse IgG1, mouse IgG2a and mouse IgG2b were used as the isotype control antibody.
(6) The expression of cell surface antigens was measured for 15,000 bone marrow cells per individual with the use of the flow cytometer.

rat bone marrow cells [2] = assay: Observation of smears of bone marrow (May-Grünwald and Giemsa staining) in rats administered with 5-FU; type: in vivo; parameters: key to Number of Cells, Erythroblasts / Number of Cells, Immature Myelocytes: —: Undetected; conditions: 50 mg/kg/day intravenously
Experimental: as §1, §2
(5) A part of bone marrow cells were suspended in an adequate amount of fetal bovine serum. An adequate amount of the resulting suspension was then dropped onto a slide glass, and a cover glass was obliquely applied to the droplet of the bovine fetal serum containing the bone marrow cells. The slide glass was directly moved to prepare smears (the wedge method). Each smear was subjected to May-Grünwald and Giemsa staining to carry out microscopic observation, and the ratio of the cells was calculated for each lineage and differentiation stage. After calculating the ratio, the resulting ratio was multiplied by the separately obtained number of bone marrow cells to determine the absolute number by observing the smear of each cell.
(7) Observation of smears was carried out for 500 bone marrow cells per individual (one smear).

Number of Cells, Erythroblasts (rat bone marrow cells [2]; Day 1, Mean ± SD, n = 3): 0.18 ± 0.07 ×10^6/μL
Number of Cells, Immature Myelocytes (rat bone marrow cells [2]; Day 1, Mean ± SD, n = 3): 0.20 ± 0.10 ×10^6/μL
Number of Cells, Lymphocytes (rat bone marrow cells [2]; Day 1, Mean ± SD, n = 3): 2.01 ± 0.86 ×10^6/μL
Number of Cells, Mature Myelocytes (rat bone marrow cells [2]; Day 1, Mean ± SD, n = 3): 0.49 ± 0.22 ×10^6/μL
Number of Cells, Erythroblasts (rat bone marrow cells [2]; Day 2, Mean ± SD, n = 3): 0.02 ± 0.03 ×10^6/μL
Number of Cells, Immature Myelocytes (rat bone marrow cells [2]; Day 2, Mean ± SD, n = 3): 0.09 ± 0.04 ×10^6/μL
Number of Cells, Lymphocytes (rat bone marrow cells [2]; Day 2, Mean ± SD, n = 3): 1.46 ± 0.21 ×10^6/μL
Number of Cells, Mature Myelocytes (rat bone marrow cells [2]; Day 2, Mean ± SD, n = 3): 0.95 ± 0.32 ×10^6/μL
Number of Cells, Erythroblasts (rat bone marrow cells [2]; Day 3, Mean ± SD, n = 3): 0.003 ± 0.001 ×10^6/μL
Number of Cells, Immature Myelocytes (rat bone marrow cells [2]; Day 3, Mean ± SD, n = 3): 0.003 ± 0.001 ×10^6/μL
Number of Cells, Lymphocytes (rat bone marrow cells [2]; Day 3, Mean ± SD, n = 3): 0.62 ± 0.13 ×10^6/μL
Number of Cells, Mature Myelocytes (rat bone marrow cells [2]; Day 3, Mean ± SD, n = 3): 0.39 ± 0.03 ×10^6/μL
Number of Cells, Erythroblasts (rat bone marrow cells [2]; Day 4, Mean ± SD, n = 3): 0.001 ± 0.001 ×10^6/μL
Number of Cells, Lymphocytes (rat bone marrow cells [2]; Day 4, Mean ± SD, n = 3): 0.56 ± 0.20 ×10^6/μL
Number of Cells, Mature Myelocytes (rat bone marrow cells [2]; Day 4, Mean ± SD, n = 3): 0.12 ± 0.02 ×10^6/μL
Number of Cells, Immature Myelocytes (rat bone marrow cells [2]; Day 4, n = 3): —
Number of Cells, Lymphocytes (rat bone marrow cells [2]; Day 5, Mean ± SD, n = 3): 0.51 ± 0.08 ×10^6/μL
Number of Cells, Mature Myelocytes (rat bone marrow cells [2]; Day 5, Mean ± SD, n = 3): 0.03 ± 0.01 ×10^6/μL
Number of Cells, Erythroblasts (rat bone marrow cells [2]; Day 5, n = 3): —
Number of Cells, Immature Myelocytes (rat bone marrow cells [2]; Day 5, n = 3): —
Compound: O=c1[nH]cc(F)c(=O)[nH]1 [5-FU, 5-Fluorouracil]
Number of CD45 Peak 1-expressing cells (rat bone marrow cells [1]; Day 1, Mean ± SD): 1.65 ± 0.68 ×10^6/μL
Number of CD45 Peak 2-expressing cells (rat bone marrow cells [1]; Day 1, Mean ± SD): 0.76 ± 0.32 ×10^6/μL
Number of CD45R-expressing cells (rat bone marrow cells [1]; Day 1, Mean ± SD): 1.54 ± 0.69 ×10^6/μL
Number of CD71-expressing cells (rat bone marrow cells [1]; Day 1, Mean ± SD): 0.46 ± 0.17 ×10^6/μL
Number of CD90-expressing cells (rat bone marrow cells [1]; Day 1, Mean ± SD): 1.76 ± 0.79 ×10^6/μL
Number of CD45 Peak 1-expressing cells (rat bone marrow cells [1]; Day 2, Mean ± SD): 1.20 ± 0.32 ×10^6/μL
Number of CD45 Peak 2-expressing cells (rat bone marrow cells [1]; Day 2, Mean ± SD): 0.82 ± 0.20 ×10^6/μL
Number of CD45R-expressing cells (rat bone marrow cells [1]; Day 2, Mean ± SD): 1.46 ± 0.27 ×10^6/μL
Number of CD71-expressing cells (rat bone marrow cells [1]; Day 2, Mean ± SD): 0.30 ± 0.15 ×10^6/μL
Number of CD90-expressing cells (rat bone marrow cells [1]; Day 2, Mean ± SD): 1.58 ± 0.18 ×10^6/μL
Number of CD45 Peak 1-expressing cells (rat bone marrow cells [1]; Day 3, Mean ± SD): 0.34 ± 0.13 ×10^6/μL
Number of CD45 Peak 2-expressing cells (rat bone marrow cells [1]; Day 3, Mean ± SD): 0.75 ± 0.25 ×10^6/μL
Number of CD45R-expressing cells (rat bone marrow cells [1]; Day 3, Mean ± SD): 0.59 ± 0.11 ×10^6/μL
Number of CD71-expressing cells (rat bone marrow cells [1]; Day 3, Mean ± SD): 0.09 ± 0.05 ×10^6/μL
Number of CD90-expressing cells (rat bone marrow cells [1]; Day 3, Mean ± SD): 0.49 ± 0.10 ×10^6/μL
Number of CD45 Peak 1-expressing cells (rat bone marrow cells [1]; Day 4, Mean ± SD): 0.05 ± 0.02 ×10^6/μL
Number of CD45 Peak 2-expressing cells (rat bone marrow cells [1]; Day 4, Mean ± SD): 0.64 ± 0.24 ×10^6/μL
Number of CD45R-expressing cells (rat bone marrow cells [1]; Day 4, Mean ± SD): 0.41 ± 0.12 ×10^6/μL
Number of CD71-expressing cells (rat bone marrow cells [1]; Day 4, Mean ± SD): 0.02 ± 0.02 ×10^6/μL
Number of CD90-expressing cells (rat bone marrow cells [1]; Day 4, Mean ± SD): 0.16 ± 0.06 ×10^6/μL
Number of CD45 Peak 1-expressing cells (rat bone marrow cells [1]; Day 5, Mean ± SD): 0.03 ± 0.02 ×10^6/μL
Number of CD45 Peak 2-expressing cells (rat bone marrow cells [1]; Day 5, Mean ± SD): 0.51 ± 0.06 ×10^6/μL
Number of CD45R-expressing cells (rat bone marrow cells [1]; Day 5, Mean ± SD): 0.32 ± 0.08 ×10^6/μL
Number of CD71-expressing cells (rat bone marrow cells [1]; Day 5, Mean ± SD): 0.02 ± 0.01 ×10^6/μL
Number of CD90-expressing cells (rat bone marrow cells [1]; Day 5, Mean ± SD): 0.09 ± 0.02 ×10^6/μL
Change of number of CD45 (Peak 1)-expressing cells, in words (rat bone marrow cells [1]; day 1 to day 5): began decreasing in a period between day 1 and day 2 of the experiment and was decreased to such an extent of the scarcely observed expressing cells on day 4 of the experiment
Change of number of CD45 (Peak 2)-expressing cells, in words (rat bone marrow cells [1]; day 1 to day 5): A decrease was not observed
Change of number of CD45R-expressing cells, in words (rat bone marrow cells [1]; day 1 to day 5): the decrease continued on day 3 of the experiment and thereafter
Change of number of CD71-expressing cells, in words (rat bone marrow cells [1]; day 1 to day 5): decreased to such an extent of the scarcely observed expressing cells on day 3 of the experiment and thereafter
Change of number of CD90-expressing cells, in words (rat bone marrow cells [1]; day 1 to day 5): markedly decreased on day 3 of the experiment and thereafter
Change of erythroblasts, in words (rat bone marrow cells [2]; day 1 to day 5): decreased to such an extent of the scarcely observed cells on day 3 of the experiment and thereafter
Change of immature myelocytes, in words (rat bone marrow cells [2]; day 1 to day 5): decreased to such an extent of the scarcely observed cells on day 3 of the experiment and thereafter
Change of lymphocytes, in words (rat bone marrow cells [2]; day 1 to day 5): decreased on day 3 of the experiment and thereafter
Change of number of mature myelocytes, in words (rat bone marrow cells [2]; day 1 to day 5): temporarily increased from day 1 to day 3 of the experiment and then decreased on day 4 of the experiment and thereafter
